Results as given in PMC5537699 (ACS Omega, 2017).
Where two headings read alike, the source gives them in different places. One block for each compound: values may come before it.

Tests used:
[1] = molecular target: pig kidney Na+/K+-ATPase (PKE) (Sus scrofa, UniProt P05024); experiment: Na+/K+-ATPase activity assay, purified pig kidney enzyme; format: biochemical; details: for Ki: 1% DMSO, PKE-1 or PKE-2, optimal turnover conditions (Figure 3)
[2] = molecular target: human kidney Na+/K+-ATPase (HKE) (Homo sapiens, UniProt P05023); experiment: Na+/K+-ATPase activity assay, purified human kidney enzyme; format: biochemical; details: for Ki: read-out: Ki, inhibition of Na+/K+-ATPase activity of HKE-1, HKE-1, 1% DMSO, optimal turnover conditions (Figure 4A)
[3] = tested on: purified PKE (pig kidney Na+/K+-ATPase); details: ref 11 (Laursen et al., their Figure 3); cited from earlier work
[4] = nearly constant levels by appropriate dosage regimens; cited from earlier work
[5] = tested on: recombinant human kidney enzyme (Na+/K+-ATPase); details: ref 14 (Katz et al., their Table 1); cited from earlier work
[6] = read-out: Ki, inhibition of Na+/K+-ATPase activity of PKE

SMILES: C[C@]12C[C@@H](O)[C@H]3[C@@H](CC[C@]4(O)C[C@@H](O)C[C@@H](O)[C@]34CO)[C@@]1(O)CC[C@@H]2C1=CC(=O)OC1 [ouabagenin]
- extent of inhibition of Na+/K+-ATPase activity ([1]; PKE (Figure 3)): complete inhibition
- fold less potent than ouabain in Na+/K+-ATPase activity assays ([1]; PKE (Figure 3)): about 3 fold
- Ki [1, 6]: 3070 ± 230 nM
- Ki [2]: 4400 ± 270 nM
- extent of inhibition of the enzyme [3]: only a partial inhibitor
- fold less potent than ouabain by relative binding constants [3]: about 800 fold

- Ki ([1]; Ki, inhibition of Na+/K+-ATPase activity of PKE): 1950 ± 150 nM
SMILES: C[C@H]1O[C@@H](O[C@H]2[C@@H](O)C[C@H](O[C@H]3[C@@H](O)C[C@H](O[C@H]4CC[C@@]5(C)[C@H](CC[C@@H]6[C@@H]5C[C@@H](O)[C@]5(C)[C@@H](C7=CC(=O)OC7)CC[C@]65O)C4)O[C@@H]3C)O[C@@H]2C)C[C@H](O)[C@@H]1O [digoxin]
- blood levels when used clinically [4]: 0.64 to 1.15 nM

SMILES: C[C@@H]1O[C@@H](O[C@H]2C[C@@H](O)[C@]3(CO)[C@H]4[C@H](O)C[C@]5(C)[C@@H](C6=CC(=O)OC6)CC[C@]5(O)[C@@H]4CC[C@]3(O)C2)[C@H](O)[C@H](O)[C@H]1O [ouabain]
- preincubation time sufficient to obtain the maximal inhibitory effect ([1]; PKE-1, incubation times 10–60 min, 0.25–1000 μM): 10 min
- ouabain sensitivity of large-scale PKE preparation versus single kidney PKEs ([1]; large-scale PKE, specific activity 1035 μmol Pi mg–1 h–1, results not shown): not significantly different

SMILES: C[C@]12CC[C@H](O)C[C@@]1(O)CC[C@@H]1[C@@H]2CC[C@]2(C)[C@@H](c3ccc(=O)oc3)C[C@H]3O[C@]132 [MBG, marinobufagenin]
- Ki [1, 6]: 1500 ± 120 nM
- potency relative to ouabain in Na+/K+-ATPase activity assays ([2]; HKE-1 (Figure 4A)): equally potent
- Ki [2]: 1070 ± 40 nM
- fold less potent than ouabain by relative binding constants [5]: about 200 fold
